Among the data in US11332473B2, “Substituted pyrazolo[3,4-d]pyrimidines as Wee1 inhibitors” (NUVATION BIO INC., priority 2019, dated 2022) are IC50 values, retold here.

The test system of test [1] is phospho-CDC2 in A427 cells. Nature of the test: Phospho-CDC2 (Tyr15) sandwich ELISA in A427 cells. The settings on record: Homo sapiens, A-427. It counts as cell-based. As to the method:
(§1) Changes in the levels of phospho-CDC2 following treatment of cells with test compounds were assessed by enzyme-linked immunosorbent assay (ELISA). A427 cells or AsPC-1 cells were plated in 6-well plates and cultured for 24 hr to approximately 80-90% confluency. Medium was replaced, and the cells were treated with the vehicle control or the test compound at several different concentrations. After incubation of treated cells in cell culture conditions for a specified time (e.g., 24 hr), cells were rinsed with ice-cold PBS and lysed in 1× cell lysis buffer containing protease inhibitors and phosphatase inhibitors. The cells were scraped from the plate with a cell scraper after a brief incubation on ice and transferred to a centrifuge tube, and then subjected to three freeze-thaw cycles in liquid nitrogen and a 37° C. water bath for further lysis. The lysates were centrifuged to pellet cell debris (using, for example, a 10 min centrifugation of 2000× g at 4° C.) and the supernatants transferred to fresh tubes on ice. The protein concentrations of the samples were estimated by the Bradford method or equivalent. The ELISA was carried out with the PathScan® Phospho-CDC2 (Tyr15) Sandwich ELISA Kit (Cat. #7176, Cell Signaling Technology, Danvers, Mass.) according to the manufacturer's instructions.
(In an ELISA, binding on a coated surface is turned into a signal by an enzyme label.)

For a further test, the system named is A427 cells. Nature of the test: Cytotoxicity assay in A427 cell line (resazurin). In kind it is cell-based. The settings on record: Homo sapiens, A-427; A427 lung epithelial cell line, 72 hr, inhibition of proliferation. The protocol: A427 (HTB-53; ATCC), a lung epithelial cell line, was seeded in medium (MEM, 41090101; Gibco) at a cell count of 1500 cells per 100 μL per well in a 96 well edge plate (167425; ThermoFisher). Cells were allowed to grow at 37° C. for 24 hr in 5% CO2 environment (culture conditions) in a Nuaire incubator (humidified). Serially diluted test compounds (100 μL) within the desired testing concentration ranges were added to the culture plate and the cells were further incubated in culture conditions for 72 hr. The experiment was terminated at the designated incubation time by replacing the medium with 100 μL of 1 mM of resazurin (R7017; Sigma) prepared in culture medium, and the plates were further incubated in culture conditions for 4-6 hr. Fluorescence was recorded using a multimodal plate reader (Biotek Synergy Neo) at an excitation wavelength of 535 nm and emission wavelength of 590 nm to obtain relative fluorescence units. Data were analysed as follows: the background fluorescence (blank containing only medium) value was subtracted from each reading and normalized with the vehicle control (DMSO treated cells) to obtain percent survival/proliferation. Percent survival was subtracted from 100 to get the percent inhibition of proliferation which was used to calculate IC50 values. Potency of compounds in other cell lines (such as A549, AsPc-1, Panc 10.05, A172, U-87MG) may be determined in an analogous manner.
On the technique in general: The colour change of resazurin is a common sign of viable cells or microbes.

A further test addresses PKMYT1 kinase (Homo sapiens (Human), UniProt Q99640). Nature of the test: PKMYT1 IC50 determination, HotSpot Kinase Assay. It counts as biochemical. Conditions: 10 μM ATP, 33P-ATP, Myelin Basic Protein substrate. The protocol:
Inhibition of PKMYT1 kinase activity by test compounds was measured by the HotSpot Kinase Assay at Reaction Biology Corporation (Malvern, Pa.). Briefly, Myelin Basic Protein substrate was prepared in Reaction Buffer (20 mM Hepes (pH 7.5), 10 mM MgCl2, 1 mM EGTA, 0.01% Brij35, 0.02 mg/mL BSA, 0.1 mM Na3VO4, 2 mM DTT, 1% DMSO). PKMYT1 kinase was delivered into the substrate solution and gently mixed. Test compounds in 100% DMSO were added into the kinase reaction mixture by Acoustic technology (Echo550; nanoliter range) and incubated for 20 min at room temperature. ^33P-ATP was delivered into the reaction mixture to initiate the reaction. Reactions were carried out at 10 μM ATP. After a 2 hour incubation at room temperature, kinase activity was detected by P81 filter-binding method. […] A nonlinear regression model with a sigmoidal dose response and variable slope within GraphPad Prism (GraphPad Software, San Diego, Calif.) was used to calculate the IC50 value of individual test compounds.

In a further test the target is WEE1 kinase enzyme (Homo sapiens (Human), UniProt P30291). Nature of the test: WEE1 IC50 determination, LanthaScreen Terbium Labeled TR-FRET kinase assay. In kind it is biochemical. The settings on record: WEE1 enzyme 1 nM, ATP 10 μM. As to the method:
IC50 values of compounds against WEE1 kinase enzyme were determined by LanthaScreen™ Terbium Labeled TR-FRET assay. Kinase assays were performed in 1X kinase buffer (#PV6135, Invitrogen, Life Technologies Grand Island, N.Y.) where total reaction volume was 10 μL in low-volume 384-well plates (#4511, Corning). Serially diluted compounds (3-fold) were incubated with WEE1 Enzyme (1 nM) (#PR7373A, Invitrogen, Life Technologies, Grand Island, N.Y.) for 10 min; a mixture of ATP (10 μM) (#A1852, Sigma, St. Louis, Mo.) and fluorescent-PolyGT substrate (200 nM) (#PV3610, Invitrogen, Life Technologies Grand Island, N.Y.) was added and incubated in dark at room temperature for 1 h. After 1 h, 10 μL stop solution containing Terbium labeled antibody (4 nM) (#PV3529, Invitrogen, Life Technologies Grand Island, N.Y.) and EDTA (#E5134, Sigma, St. Louis, Mo.) (20 mM) in TR-FRET dilution buffer (#PV3574, Invitrogen, Life Technologies Grand Island, N.Y.) was added. Readings were taken in a Synergy Neo Plate reader (BioTek, Winooski, Vt.) at single excitation of 340 nm and dual emission at 495 nm and 520 nm respectively.
The % activity of test samples was calculated as (Sample−Min)*100/(Max−Min). [Max: DMSO control, complete reaction with enzyme & DMSO and Min: No enzyme & DMSO].
In general terms: In TR-FRET formats the signal depends on donor and acceptor labels being close together.

Test [2] deals with phospho-CDC2 in AsPC-1 cells. Nature of the test: Phospho-CDC2 (Tyr15) sandwich ELISA in AsPC-1 cells. It counts as cell-based. Conditions: Homo sapiens, ASPC1. As to the method: as §1

Structures are written as SMILES.

Chain of PKMYT1 kinase (Q99640 whole entry): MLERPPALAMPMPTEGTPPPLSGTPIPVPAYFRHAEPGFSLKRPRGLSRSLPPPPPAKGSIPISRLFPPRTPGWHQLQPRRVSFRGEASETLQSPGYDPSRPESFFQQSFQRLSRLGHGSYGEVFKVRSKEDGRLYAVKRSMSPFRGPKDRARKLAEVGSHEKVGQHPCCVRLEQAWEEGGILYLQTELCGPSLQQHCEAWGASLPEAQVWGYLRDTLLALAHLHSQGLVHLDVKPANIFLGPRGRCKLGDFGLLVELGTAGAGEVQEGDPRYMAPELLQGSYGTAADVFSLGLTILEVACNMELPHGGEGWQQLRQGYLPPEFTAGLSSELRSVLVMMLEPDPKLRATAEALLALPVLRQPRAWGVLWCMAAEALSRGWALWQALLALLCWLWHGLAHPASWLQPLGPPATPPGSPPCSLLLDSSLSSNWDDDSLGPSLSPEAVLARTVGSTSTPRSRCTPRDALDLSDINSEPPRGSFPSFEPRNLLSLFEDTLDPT
Chain of WEE1 kinase enzyme (P30291 whole entry): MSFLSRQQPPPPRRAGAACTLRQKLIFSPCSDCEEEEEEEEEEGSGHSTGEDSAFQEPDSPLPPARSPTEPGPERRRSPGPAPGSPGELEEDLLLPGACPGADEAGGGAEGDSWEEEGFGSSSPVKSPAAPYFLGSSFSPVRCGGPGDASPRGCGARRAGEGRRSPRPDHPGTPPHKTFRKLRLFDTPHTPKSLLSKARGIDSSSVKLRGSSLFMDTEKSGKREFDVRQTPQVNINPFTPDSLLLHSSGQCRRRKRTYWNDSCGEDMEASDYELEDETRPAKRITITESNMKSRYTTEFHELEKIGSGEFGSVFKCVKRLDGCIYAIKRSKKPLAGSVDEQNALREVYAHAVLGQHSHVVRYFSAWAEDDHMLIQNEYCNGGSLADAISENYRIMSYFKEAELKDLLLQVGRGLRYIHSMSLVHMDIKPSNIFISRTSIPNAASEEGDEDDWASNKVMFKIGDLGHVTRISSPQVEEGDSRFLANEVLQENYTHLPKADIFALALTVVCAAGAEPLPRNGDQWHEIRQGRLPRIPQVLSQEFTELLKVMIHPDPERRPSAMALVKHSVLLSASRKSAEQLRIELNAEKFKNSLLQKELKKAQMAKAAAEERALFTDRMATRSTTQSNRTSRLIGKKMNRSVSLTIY

Turning to `CCn1c(=O)c2cnc(Nc3ccc4c(c3)CNCC4)nc2n1-c1cccc(C2(C#N)CC2)n1` [1.38, 1-(6-(2-ethyl-3-oxo-6-((1,2,3,4-tetrahydroisoquinolin-7-yl)amino)-2,3-dihydro-1H-pyrazolo[3,4-d]pyrimidin-1-yl)pyridin-2-yl)cyclopropane-1-carbonitrile], the IC50 (usually the concentration needed to halve the response being measured) worked out at 176 nM in test [1], 401 nM in the test on A427 cells, 223 nM at PKMYT1 kinase and 4 nM on WEE1 kinase enzyme.

On to `CC(C)n1c(=O)c2cnc(Nc3ccc4c(c3)CCNC4)nc2n1-c1ccc(F)c(C(C)(C)F)n1` [1.1, 1-(5-fluoro-6-(2-fluoropropan-2-yl)pyridin-2-yl)-2-isopropyl-6-((1,2,3,4-tetrahydroisoquinolin-6-yl)amino)-1,2-dihydro-3H-pyrazolo[3,4-d]pyrimidin-3-one], for which the IC50 came out at 339 nM in test [1], 3740 nM with A427 cells, 6570 nM at PKMYT1 kinase and 6 nM on WEE1 kinase enzyme.

Regarding `CC(C)n1c(=O)c2cnc(Nc3ccc4c(c3)CCNC4)nc2n1-c1ccc(F)c(C(C)(C)O)n1` [1.249, 1-(5-fluoro-6-(2-hydroxypropan-2-yl)pyridin-2-yl)-2-isopropyl-6-((1,2,3,4-tetrahydroisoquinolin-6-yl)amino)-1,2-dihydro-3H-pyrazolo[3,4-d]pyrimidin-3-one], the IC50 in test [1] was 230 nM; in the test with A427 cells, 592 nM; against PKMYT1 kinase, 20100 nM; at WEE1 kinase enzyme, 16 nM.

For `CC(C)n1c(=O)c2cnc(Nc3ccc4c(c3)CNCC4)nc2n1-c1nc(C(C)(C)C)c(Cl)s1` [1.349, 1-(4-(tert-butyl)-5-chlorothiazol-2-yl)-2-isopropyl-6-((1,2,3,4-tetrahydroisoquinolin-7-yl)amino)-1,2-dihydro-3H-pyrazolo[3,4-d]pyrimidin-3-one], the IC50 in the test with A427 cells worked out at 490 nM; at PKMYT1 kinase it was 19900 nM; at WEE1 kinase enzyme it was 384 nM.

Turning to `CC(C)n1c(=O)c2cnc(Nc3ccc4c(c3)CCNC4)nc2n1-c1ccnc(C2(C#N)CC2)c1` [1.67, 1-(4-(2-isopropyl-3-oxo-6-(1,2,3,4-tetrahydroisoquinolin-6-ylamino)-2,3-dihydro-1H-pyrazolo[3,4-d]pyrimidin-1-yl)pyridin-2-yl)cyclopropanecarbonitrile], the IC50 in the test on A427 cells worked out at 2580 nM; on PKMYT1 kinase, 2900 nM; on WEE1 kinase enzyme, 15 nM.

Turning to `CCn1c(=O)c2cnc(Nc3ccc4c(c3)CNCC4)nc2n1-c1cccc(C2(CF)CC2)n1` [1.86, 2-ethyl-1-(6-(1-(fluoromethyl)cyclopropyl)pyridin-2-yl)-6-((1,2,3,4-tetrahydroisoquinolin-7-yl)amino)-1,2-dihydro-3H-pyrazolo[3,4-d]pyrimidin-3-one], the results for the IC50 in the test on A427 cells, at PKMYT1 kinase and on WEE1 kinase enzyme were 685 nM, 4200 nM and 2 nM, respectively.

Turning to `CC(C)n1c(=O)c2cnc(Nc3ccc4c(c3)CCNC4)nc2n1-c1cccc(C2(C#N)CC2)n1` [1.43, 1-(6-(2-isopropyl-3-oxo-6-((1,2,3,4-tetrahydroisoquinolin-6-yl)amino)-2,3-dihydro-1H-pyrazolo[3,4-d]pyrimidin-1-yl)pyridin-2-yl)cyclopropane-1-carbonitrile], the IC50 came out at 320 nM in test [1], 1480 nM in the test on A427 cells, 5630 nM at PKMYT1 kinase and 9 nM at WEE1 kinase enzyme.

Take `CCn1c(=O)c2cnc(Nc3ccc4c(c3)CCNC4)nc2n1-c1ccc(F)c(C(C)(C)O)n1` [1.261, 2-ethyl-1-(5-fluoro-6-(2-hydroxypropan-2-yl)pyridin-2-yl)-6-((1,2,3,4-tetrahydroisoquinolin-6-yl)amino)-1,2-dihydro-3H-pyrazolo[3,4-d]pyrimidin-3-one]: the IC50 in the test on A427 cells stood at 900 nM; against PKMYT1 kinase it was 4540 nM; at WEE1 kinase enzyme, 9 nM.

Consider `CC(C)n1c(=O)c2cnc(Nc3ccc4c(c3)CCNC4(C)C)nc2n1-c1cccc(C2(C#N)CC2)n1` [1.45, 1-(6-(6-(1,1-dimethyl-1,2,3,4-tetrahydroisoquinolin-6-ylamino)-2-isopropyl-3-oxo-2,3-dihydro-1H-pyrazolo[3,4-d]pyrimidin-1-yl)pyridin-2-yl)cyclopropanecarbonitrile], for which the IC50 in test [1] stood at 66 nM; with A427 cells, 2180 nM; against PKMYT1 kinase it was 1540 nM; in test [2], 285 nM; at WEE1 kinase enzyme it was 10 nM.

With `CC(C)n1c(=O)c2cnc(Nc3ccc4c(c3)CNCC4)nc2n1-c1cccc(C2(C#N)CC2)n1` [1.44, 1-(6-(2-isopropyl-3-oxo-6-((1,2,3,4-tetrahydroisoquinolin-7-yl)amino)-2,3-dihydro-1H-pyrazolo[3,4-d]pyrimidin-1-yl)pyridin-2-yl)cyclopropane-1-carbonitrile], the values for the IC50 with A427 cells, against PKMYT1 kinase and at WEE1 kinase enzyme were 892 nM, 1170 nM and 3 nM, respectively.

For `CC(C)(F)c1nc(-n2c3nc(Nc4ccc5c(c4)CCNC5)ncc3c(=O)n2C2CC2)ccc1F` [1.2, 2-cyclopropyl-1-(5-fluoro-6-(2-fluoropropan-2-yl)pyridin-2-yl)-6-((1,2,3,4-tetrahydroisoquinolin-6-yl)amino)-1,2-dihydro-3H-pyrazolo[3,4-d]pyrimidin-3-one], the IC50 is 952 nM in test [1], 3410 nM with A427 cells, 10200 nM against PKMYT1 kinase and 36 nM on WEE1 kinase enzyme.
